Laboratory results as given in patent publication US20100292231A1, “Indazole Compounds for Treating Inflammatory Disorders, Demyelinating Disorders and Cancers” (priority 2007, published 2010).
pEC50: −log10 of the molar value. Where two headings read alike, the source gives them in different places.

Experiments:
Assay in all cases: SelectScreen kinase specificity survey
Assay type in all cases: biochemical
MYLK2 (skMLCK) = molecular target: T1, MYLK2 (skMLCK) (Homo sapiens, UniProt Q9H1R3); conditions: estimated, abridged dose response curve; for pEC50: read-out: Kinase inhibitory activity EC50
T1 construct: purchased Invitrogen, Inc. (SelectScreen platform)
Method in brief: (§1)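 Specificity was surveyed across 230 kinases using kinase-matched substrate/optical reporter pairs and 100 micromolar ATP. EC50 comes from a 4-parameter Hill fit of an abridged curve.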

ITK = molecular target: T2, ITK (Homo sapiens, UniProt Q08881); conditions: estimated, abridged dose response curve, read-out: Kinase inhibitory activity EC50
T2 construct: purchased Invitrogen (SelectScreen)
T2 sequence (Q08881 whole entry): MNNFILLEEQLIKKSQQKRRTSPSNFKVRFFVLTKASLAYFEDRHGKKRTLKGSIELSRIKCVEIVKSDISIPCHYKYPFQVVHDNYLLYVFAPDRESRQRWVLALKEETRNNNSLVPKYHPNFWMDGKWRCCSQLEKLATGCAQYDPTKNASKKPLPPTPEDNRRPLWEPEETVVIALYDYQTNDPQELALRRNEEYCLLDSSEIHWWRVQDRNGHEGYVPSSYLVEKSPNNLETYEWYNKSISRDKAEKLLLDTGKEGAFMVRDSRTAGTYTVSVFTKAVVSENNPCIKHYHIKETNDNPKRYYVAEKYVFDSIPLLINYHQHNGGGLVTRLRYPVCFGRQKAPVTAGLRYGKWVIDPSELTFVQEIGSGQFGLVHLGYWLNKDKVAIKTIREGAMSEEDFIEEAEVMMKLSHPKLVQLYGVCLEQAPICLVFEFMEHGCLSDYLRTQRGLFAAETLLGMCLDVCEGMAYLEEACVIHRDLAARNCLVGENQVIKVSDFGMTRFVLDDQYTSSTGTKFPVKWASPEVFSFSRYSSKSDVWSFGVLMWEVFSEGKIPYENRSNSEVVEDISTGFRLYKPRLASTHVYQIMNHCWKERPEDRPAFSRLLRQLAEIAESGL
Method in brief: as §1

NEK6 = molecular target: T3, NEK6 (Homo sapiens, UniProt Q9HC98); conditions: estimated, abridged dose response curve, read-out: Kinase inhibitory activity EC50
T3 construct: purchased Invitrogen, Inc. (SelectScreen service)
T3 sequence (Q9HC98 whole entry): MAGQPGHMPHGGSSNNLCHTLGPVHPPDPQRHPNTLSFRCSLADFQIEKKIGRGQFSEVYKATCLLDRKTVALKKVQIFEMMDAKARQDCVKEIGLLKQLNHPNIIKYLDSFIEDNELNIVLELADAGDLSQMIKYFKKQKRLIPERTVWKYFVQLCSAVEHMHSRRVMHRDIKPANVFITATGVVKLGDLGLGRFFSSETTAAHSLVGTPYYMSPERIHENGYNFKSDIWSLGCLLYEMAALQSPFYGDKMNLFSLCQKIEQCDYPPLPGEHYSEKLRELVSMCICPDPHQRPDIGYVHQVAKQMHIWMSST
Method in brief: as §1

AURKC (Aurora C) = molecular target: T4, AURKC (Aurora C) (Homo sapiens, UniProt Q9UQB9); conditions: estimated, abridged dose response curve, read-out: Kinase inhibitory activity EC50
T4 construct: purchased Invitrogen, Inc. (SelectScreen service)
T4 sequence (Q9UQB9 whole entry): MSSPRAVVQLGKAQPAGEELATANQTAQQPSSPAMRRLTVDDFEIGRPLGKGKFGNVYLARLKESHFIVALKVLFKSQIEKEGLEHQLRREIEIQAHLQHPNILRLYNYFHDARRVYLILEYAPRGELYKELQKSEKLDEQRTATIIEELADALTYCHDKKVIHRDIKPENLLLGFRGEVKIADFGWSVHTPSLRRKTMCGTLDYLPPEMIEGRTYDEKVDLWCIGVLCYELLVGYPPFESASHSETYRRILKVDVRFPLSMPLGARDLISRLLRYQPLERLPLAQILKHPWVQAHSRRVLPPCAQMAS
Method in brief: as §1

LCK = molecular target: T5, LCK (Homo sapiens, UniProt P06239); conditions: estimated, abridged dose response curve, read-out: Kinase inhibitory activity EC50
T5 construct: purchased Invitrogen (SelectScreen)
T5 sequence (P06239 whole entry): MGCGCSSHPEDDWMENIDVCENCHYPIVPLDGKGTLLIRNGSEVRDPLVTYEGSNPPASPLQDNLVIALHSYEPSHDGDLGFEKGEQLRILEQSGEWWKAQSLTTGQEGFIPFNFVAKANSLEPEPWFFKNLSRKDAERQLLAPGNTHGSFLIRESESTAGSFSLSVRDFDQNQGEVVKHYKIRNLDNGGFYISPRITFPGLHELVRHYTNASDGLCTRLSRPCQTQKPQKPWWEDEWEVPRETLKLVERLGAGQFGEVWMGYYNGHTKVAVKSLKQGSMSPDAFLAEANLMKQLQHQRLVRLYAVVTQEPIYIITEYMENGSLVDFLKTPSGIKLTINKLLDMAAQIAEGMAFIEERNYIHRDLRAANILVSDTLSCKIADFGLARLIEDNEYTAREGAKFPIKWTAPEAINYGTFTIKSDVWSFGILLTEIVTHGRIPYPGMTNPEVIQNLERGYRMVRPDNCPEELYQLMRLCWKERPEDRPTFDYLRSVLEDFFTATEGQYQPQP
Method in brief: as §1

RPS6KA6 (RSK4) = molecular target: T6, RPS6KA6 (RSK4) (Homo sapiens, UniProt Q9UK32); conditions: estimated, abridged dose response curve, read-out: Kinase inhibitory activity EC50
T6 construct: purchased Invitrogen, Inc. (SelectScreen platform)
T6 sequence (Q9UK32 whole entry): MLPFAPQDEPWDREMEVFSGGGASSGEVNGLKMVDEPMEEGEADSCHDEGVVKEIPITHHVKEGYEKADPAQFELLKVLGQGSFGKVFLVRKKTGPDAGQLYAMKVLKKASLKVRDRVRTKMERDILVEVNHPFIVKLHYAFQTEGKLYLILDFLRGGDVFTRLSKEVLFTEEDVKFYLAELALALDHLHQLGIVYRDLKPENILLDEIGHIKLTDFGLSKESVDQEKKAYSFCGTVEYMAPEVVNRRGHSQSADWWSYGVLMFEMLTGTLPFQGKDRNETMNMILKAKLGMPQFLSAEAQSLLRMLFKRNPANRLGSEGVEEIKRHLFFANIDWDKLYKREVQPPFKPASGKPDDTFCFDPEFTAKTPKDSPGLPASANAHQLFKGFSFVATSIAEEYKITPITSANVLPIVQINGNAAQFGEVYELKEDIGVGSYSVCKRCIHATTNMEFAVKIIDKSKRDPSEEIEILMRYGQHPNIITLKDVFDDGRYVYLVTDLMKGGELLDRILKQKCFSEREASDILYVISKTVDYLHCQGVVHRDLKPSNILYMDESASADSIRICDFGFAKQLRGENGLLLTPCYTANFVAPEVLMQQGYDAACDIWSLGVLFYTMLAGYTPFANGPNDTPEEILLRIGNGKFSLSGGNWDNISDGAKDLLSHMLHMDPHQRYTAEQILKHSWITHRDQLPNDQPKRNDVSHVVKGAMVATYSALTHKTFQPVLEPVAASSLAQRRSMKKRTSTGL
Method in brief: as §1

SRC = molecular target: T7, SRC (Homo sapiens, UniProt P12931); conditions: estimated, abridged dose response curve, read-out: Kinase inhibitory activity EC50
T7 construct: purchased Invitrogen (SelectScreen)
T7 sequence (P12931 whole entry): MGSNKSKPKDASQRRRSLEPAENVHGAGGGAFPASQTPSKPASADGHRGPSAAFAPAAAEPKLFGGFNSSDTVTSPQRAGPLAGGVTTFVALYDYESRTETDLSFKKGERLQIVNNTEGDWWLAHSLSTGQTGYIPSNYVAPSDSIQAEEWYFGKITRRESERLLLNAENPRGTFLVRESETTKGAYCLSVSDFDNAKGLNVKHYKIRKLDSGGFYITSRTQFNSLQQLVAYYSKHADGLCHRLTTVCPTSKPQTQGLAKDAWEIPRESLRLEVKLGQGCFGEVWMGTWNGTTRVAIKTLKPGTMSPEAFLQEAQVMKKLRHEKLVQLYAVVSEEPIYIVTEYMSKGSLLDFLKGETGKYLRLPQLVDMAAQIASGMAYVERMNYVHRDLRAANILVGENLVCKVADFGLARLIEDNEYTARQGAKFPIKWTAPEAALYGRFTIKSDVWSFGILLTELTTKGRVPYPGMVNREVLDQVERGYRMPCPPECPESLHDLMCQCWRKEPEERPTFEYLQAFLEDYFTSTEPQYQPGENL
Method in brief: as §1

FYN = molecular target: T8, FYN (Homo sapiens, UniProt P06241); conditions: estimated, abridged dose response curve, read-out: Kinase inhibitory activity EC50
T8 construct: purchased Invitrogen (SelectScreen)
T8 sequence (P06241 whole entry): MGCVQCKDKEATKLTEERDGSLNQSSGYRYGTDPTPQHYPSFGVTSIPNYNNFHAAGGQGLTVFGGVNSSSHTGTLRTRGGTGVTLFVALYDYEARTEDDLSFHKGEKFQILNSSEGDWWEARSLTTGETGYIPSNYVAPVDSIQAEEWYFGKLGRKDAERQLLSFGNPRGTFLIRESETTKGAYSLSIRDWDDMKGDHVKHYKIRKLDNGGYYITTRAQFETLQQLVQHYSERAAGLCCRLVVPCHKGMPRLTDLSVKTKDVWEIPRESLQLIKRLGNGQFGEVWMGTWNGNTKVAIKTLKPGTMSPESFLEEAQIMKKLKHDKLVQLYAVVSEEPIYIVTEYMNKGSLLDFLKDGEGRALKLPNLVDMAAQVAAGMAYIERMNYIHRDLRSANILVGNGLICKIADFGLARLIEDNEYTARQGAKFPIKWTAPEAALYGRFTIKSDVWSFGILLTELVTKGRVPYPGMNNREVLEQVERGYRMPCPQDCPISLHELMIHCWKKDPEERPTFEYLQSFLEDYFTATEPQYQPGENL
Method in brief: as §1

AKT2 (PKB beta) = molecular target: T9, AKT2 (PKB beta) (Homo sapiens, UniProt P31751); conditions: estimated, abridged dose response curve, read-out: Kinase inhibitory activity EC50
T9 construct: purchased Invitrogen (SelectScreen platform)
T9 sequence (P31751 whole entry): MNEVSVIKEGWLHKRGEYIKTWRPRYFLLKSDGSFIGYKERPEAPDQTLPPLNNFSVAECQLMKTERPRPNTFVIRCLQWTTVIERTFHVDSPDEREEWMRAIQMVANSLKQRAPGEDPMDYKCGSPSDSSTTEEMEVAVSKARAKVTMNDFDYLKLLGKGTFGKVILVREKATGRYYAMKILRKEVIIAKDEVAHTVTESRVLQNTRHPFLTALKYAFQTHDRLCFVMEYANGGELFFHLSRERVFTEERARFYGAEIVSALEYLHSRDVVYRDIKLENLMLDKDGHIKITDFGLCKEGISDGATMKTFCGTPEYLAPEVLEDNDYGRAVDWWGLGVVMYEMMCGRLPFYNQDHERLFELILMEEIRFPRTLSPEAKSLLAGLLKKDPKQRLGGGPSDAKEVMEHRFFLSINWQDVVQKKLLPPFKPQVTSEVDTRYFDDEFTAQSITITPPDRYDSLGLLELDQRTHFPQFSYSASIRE
Method in brief: as §1

GRK5 = molecular target: T10, GRK5 (Homo sapiens, UniProt P34947)
T10 construct: purchased Invitrogen (SelectScreen platform)
Method in brief: as §1

PDGFRA T674I = molecular target: T11, PDGFRA T674I (Homo sapiens, UniProt P16234, T674I); conditions: estimated, abridged dose response curve, read-out: Kinase inhibitory activity EC50
T11 construct: purchased Invitrogen (SelectScreen platform)
Method in brief: as §1

GSK3A (GSK3 alpha) = molecular target: T12, GSK3A (GSK3 alpha) (Homo sapiens, UniProt P49840); conditions: estimated, abridged dose response curve, read-out: Kinase inhibitory activity EC50
T12 construct: purchased Invitrogen (SelectScreen platform)
T12 sequence (P49840 whole entry): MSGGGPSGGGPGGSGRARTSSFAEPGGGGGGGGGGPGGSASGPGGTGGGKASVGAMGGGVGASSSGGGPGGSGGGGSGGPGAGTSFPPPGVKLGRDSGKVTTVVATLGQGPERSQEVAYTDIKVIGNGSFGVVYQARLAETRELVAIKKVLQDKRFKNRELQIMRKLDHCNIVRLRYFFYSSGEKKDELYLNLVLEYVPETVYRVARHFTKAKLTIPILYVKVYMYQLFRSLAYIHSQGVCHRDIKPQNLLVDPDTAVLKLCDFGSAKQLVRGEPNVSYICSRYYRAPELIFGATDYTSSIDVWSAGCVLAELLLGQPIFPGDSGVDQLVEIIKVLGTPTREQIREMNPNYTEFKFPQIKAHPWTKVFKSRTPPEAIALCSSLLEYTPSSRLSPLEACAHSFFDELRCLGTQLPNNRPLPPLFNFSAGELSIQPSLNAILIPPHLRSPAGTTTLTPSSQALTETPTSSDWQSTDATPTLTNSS
Method in brief: as §1

Row | SMILES | pEC50 (MYLK2 (skMLCK)) | pEC50 (ITK) | pEC50 (NEK6) | pEC50 (AURKC (Aurora C)) | pEC50 (LCK) | pEC50 (RPS6KA6 (RSK4)) | pEC50 (SRC) | pEC50 (FYN) | pEC50 (AKT2 (PKB beta)) | pEC50 (GRK5) | pEC50 (PDGFRA T674I) | pEC50 (GSK3A (GSK3 alpha)) | Kinase inhibitory activity EC50 (MYLK2 (skMLCK)) | pEC50 (GRK5; GRK5, estimated, abridged dose response curve, read-out: Kinase inhibitory activity EC50)
1 | CCN(CC)CCNc1ccc2ncn3c4ccc(O)cc4c(=O)c1c23 [Symadex, 5-(2-(diethylamino)ethylamino)-8-hydroxy-6H-imidazo[4,5,1-de]acridin-6-one, reference compound] | 7.39 | < 5.30 | < 5.30 | < 5.30 | 6.08 | 6.74 | 5.36 | < 5.30 | < 5.30 | < 5.30 | < 5.30 | < 5.30 |  | 
2 | CN(C)CCCNc1ccc2ncn3c4ccc5[nH]ncc5c4c(=O)c1c23 [Compound (IV)] | 7.82 | 6.20 | < 5.30 | < 5.30 | 6.46 | 6.18 | 6.36 | 6.12 | < 5.30 |  | < 5.30 | 5.44 | low nM | < 5.30
